Values joined by “and” are separate entries in the source; they are usually repeats but may differ in a detail not shown here. Identical values can stand only once. “Also recorded” adds a separate entry of the source.
Columns and labels:
(UniProt Q2FCU6) = experiment: Gyrase supercoiling inhibition; format: biochemical, Acinetobacter baumannii; conditions: read-out: IC50 supercoiling, A. baumannii gyrase
Method: Of this stock solution, 27 µl was aliquoted for each reaction in 1.5 ml Eppendorf tubes and supplemented with 0.6 µl of the appropriate compound dilution or corresponding solvent with a final DMSO concentration of 2%. The reactions were started with 3 µl of enzyme (1 U for WT gyrase retrieved from Inspiralis Limited or 25–30 nM gyrase variants purified in house) in dilution buffer (50 mM Tris–HCl (pH 7.5), 100 mM KCl, 2 mM DTT, 1 mM EDTA and 50% (wt/vol) glycerol) for a final volume of 30 µl. Reactions were run at 37 °C for 30 min and stopped with the addition of 30 µl STEB buffer (40% (wt/vol) sucrose, 100 mM Tris–HCl pH 8, 100 mM EDTA, 0.5 mg ml^−1 bromophenol blue) and 30 µl of a chloroform:isoamyl alcohol solution (24:1 vol/vol). After brief vortexing and centrifugation at 2,300g for 1 min, 20 µl of the aqueous phase was loaded onto 1% (wt/vol) agarose gels in TAE (Tris–acetate […]) gel. The gels were run at 85 V for 2 h followed by staining (15 min) in 1 µg ml^−1 ethidium bromide and destaining (5–10 min) in water. DNA was visualized (602/50, UV Trans, auto optimal exposure) with a ChemiDoc MP (Bio-Rad Laboratories Inc., equipped with ImageLab Touch Software v2.0.0.27) and the percentage of supercoiled DNA relative to the total amount material per lane was determined with ImageLab 6.1 software (Bio-Rad Laboratories Inc.) or ImageJ[47] software. […]

E. coli W3110 = experiment: Time-kill assay
Method: From glycerol stocks, bacterial strains were cultured on blood agar plates by overnight incubation at 37 °C. Subsequently, a single colony was cultured in TSB overnight at 37 °C. The culture was diluted 100-fold in fresh CAMHB and grown until early exponential phase (OD600 of 0.25) followed by 100-fold dilution in media. The culture was split in separate culture tubes containing 2 ml. […] The supernatant was discarded and pellets were washed once with filter-sterilized PBS, then resuspended in an equal volume of fresh buffer and samples were tenfold serially diluted until a 10^5 dilution. Then, 10 µl of the appropriate dilutions were inoculated on LB agar plates in technical duplicates, subsequently allowed to evaporate and incubated at 37 °C for 18 h. The colonies were counted and used to calculate the colony forming unit (c.f.u.) per ml remaining in the original culture by taking the dilution factors into account. The experiment was performed in biological duplicates.

E. coli gyrase = E. coli gyrase (Escherichia coli, UniProt P0AES4); experiment: Time course of CIP- and Ca2+-mediated DNA cleavage; format: biochemical; conditions: 5 µM LEI-800
Method: Time courses of CIP- and Ca^2+-mediated DNA cleavage were performed based on a previously published protocol. E. coli gyrase (200 nM) was incubated at 25 °C in 360 µl reactions with assay buffer (35 mM Tris–HCl (pH 7.5), 24 mM KCl, 4 mM MgCl2, 2 mM DTT, 1.8 mM spermidine, 1 mM ATP, 6.5% (wt/vol) glycerol and 0.1 mg ml^−1 albumin) and 500 ng supercoiled pBR322 DNA (Inspiralis Ltd.). For CIP-induced cleavage, 5 µM […] into the master mix. For Ca^2+-induced cleavage, the assay buffer was supplemented with 5 mM CaCl2. […] At selected timepoints, 30 µl aliquots were withdrawn and stopped by an addition of 3 µl 2% SDS and 3 µl 100 mM EDTA. After the time course, aliquots were treated with proteinase K (0.5 mg ml^−1) for 30 min at 37 °C and extracted with 30 µ chloroform:isoamyl alcohol solution (24:1 vol/vol). The aqueous layers from the assays were mixed with 30 µl STEB and run on 1% agarose TAE gels with 10 µg ml^−1 ethidium bromide at 80 V. Gels were visualized and analysed as described for the supercoiling inhibition assays.

sheep blood cells = experiment: Haemolytic activity; format: cell-based; conditions: 20 h incubation with sheep blood cells
Method: Whole defibrinated sheep blood (10631715, Fisher Scientific) was centrifuged (400g) for 15 min at 4 °C. The supernatant was discarded and the remaining blood cell suspension was mixed with PBS and centrifuged (400g) for 15 min at 4 °C. Washing cycles were repeated at least three times, until the supernatant was clear after centrifugation. The packed blood cells were diluted 25-fold in PBS with 0.002% polysorbate 80. Test compounds were serially diluted twofold in U-bottom polypropylene 96-well microtitre plates in PBS with 0.002% polysorbate 80 (75 µl). An equal volume (75 µl) of the blood cell suspension was added to all wells. […]. The well plates were incubated for 20 h at 37 °C with continuous shaking (500 r.p.m.). After incubation, plates were centrifuged (800g) for 5 min, and 25 µl of supernatant was transferred to a clear UV-star flat-bottom polystyrene 96-well plate containing 100 µl ultrapure water per well. Absorption was measured at 415 nm with a Spark multimode microplate reader (Tecan). Data were corrected for the background response of 0.5% DMSO in the presence of cells with no antibiotic and normalized using the absorbance of 0.1% Triton X-100 with blood cells, as 100% haemolytic activity.

E. coli gyrase, sequence (P0AES4 whole entry): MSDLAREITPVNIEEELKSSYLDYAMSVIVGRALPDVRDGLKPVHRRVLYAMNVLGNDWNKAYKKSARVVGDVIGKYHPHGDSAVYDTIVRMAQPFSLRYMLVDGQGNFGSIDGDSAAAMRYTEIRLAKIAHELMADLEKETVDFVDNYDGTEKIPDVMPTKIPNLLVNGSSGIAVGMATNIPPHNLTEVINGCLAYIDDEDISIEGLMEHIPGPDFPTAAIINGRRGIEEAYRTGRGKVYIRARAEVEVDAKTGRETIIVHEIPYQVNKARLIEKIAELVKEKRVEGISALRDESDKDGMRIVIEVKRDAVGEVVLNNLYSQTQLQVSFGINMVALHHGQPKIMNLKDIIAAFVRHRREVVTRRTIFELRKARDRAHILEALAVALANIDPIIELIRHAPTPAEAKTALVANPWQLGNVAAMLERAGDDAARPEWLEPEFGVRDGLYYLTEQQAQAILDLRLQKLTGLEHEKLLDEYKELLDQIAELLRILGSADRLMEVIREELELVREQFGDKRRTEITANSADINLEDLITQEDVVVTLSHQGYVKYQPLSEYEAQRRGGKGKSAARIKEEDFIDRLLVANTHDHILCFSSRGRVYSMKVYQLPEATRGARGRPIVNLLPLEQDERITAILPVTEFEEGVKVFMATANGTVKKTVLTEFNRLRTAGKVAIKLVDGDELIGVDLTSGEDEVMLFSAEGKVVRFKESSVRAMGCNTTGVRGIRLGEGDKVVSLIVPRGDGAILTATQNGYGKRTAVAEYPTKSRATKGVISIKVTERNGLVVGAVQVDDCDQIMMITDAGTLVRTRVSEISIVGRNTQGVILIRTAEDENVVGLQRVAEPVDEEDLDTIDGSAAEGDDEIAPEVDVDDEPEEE

## O=S(=O)(NC[C@@H]1CC[C@H](c2ccc(-c3cccnc3)cc2)N1)c1cccc2cnccc12 [LEI-800]
(UniProt Q2FCU6)
  IC50: 103 nM
E. coli W3110; 4xMIC, 0.5 h, n = 1 and n = 2
  time kill kinetics, bacterial count: 5.021 and 5.23
E. coli W3110; 4xMIC, 1 h
  time kill kinetics, bacterial count: 5.061 and 4.929
E. coli W3110; 4xMIC, 2 h
  time kill kinetics, bacterial count: 5.041 and 5.176
E. coli W3110; 4xMIC, 4 h
  time kill kinetics, bacterial count: 3.061 and 3.243
E. coli W3110; 4xMIC, 8 h
  time kill kinetics, bacterial count: 2 and 2.778
E. coli W3110; 4xMIC, 24 h
  time kill kinetics, bacterial count: 5.176 and 4.875
E. coli W3110; 8xMIC, 0.5 h
  time kill kinetics, bacterial count: 5.243 and 5.021
E. coli W3110; 8xMIC, 1 h
  time kill kinetics, bacterial count: 4.431 and 4.732
E. coli W3110; 8xMIC, 2 h
  time kill kinetics, bacterial count: 4.903 and 5
E. coli W3110; 8xMIC, 4 h
  time kill kinetics, bacterial count: 3.13 and 3.079
E. coli W3110; 8xMIC, 8 h
  time kill kinetics, bacterial count: 2.301 and 2
E. coli W3110; 8xMIC, 24 h
  time kill kinetics, bacterial count: 1.99
E. coli W3110; at higher concentrations
  bactericidal activity: bactericidal
E. coli gyrase; 5 µM CIP
  CIP-mediated DNA cleavage: amount of cleaved DNA is reduced; also recorded: clear inhibition
E. coli gyrase; 5 mM Ca2+
  Ca2+-mediated DNA cleavage: amount of cleaved DNA is reduced; also recorded: strongly inhibited
Sheep blood cells
  haemolytic activity: no haemolytic activity
